Laboratory results taken from patent US20130089505A1, “SINGLE VIAL FORMULATION FOR MEDICAL GRADE CYANOACRYLATE” (priority 2007, published 2013).

Experiment: Viscosity of cyanoacrylate monomer, oligomer and formulation
Format: physicochemical
Conditions: monomer free of 4-methoxyphenol and SO2
Text: In one embodiment, an alkyl cyanoacrylate monomer can be treated to form an alkyl cyanoacrylate oligomer with viscosity greater than the alkyl cyanoacrylate monomer. For example, an n-hexyl cyanoacrylate monomer can be treated to form an n-hexyl cyanoacrylate oligomer. Preferred oligomers result from photochemical treatment of an alkyl cyanoacrylate monomer, to produce a mixture that includes partially polymerized cyanoacrylate and that has a higher viscosity than the alkyl cyanoacrylate monomer from which it is formed. For example, the viscosity of the alkyl cyanoacrylate oligomer can advantageously be from about 10 centipoise to about 1000 centipoise and the viscosity of the alkyl cyanoacrylate monomer, from which the alkyl cyanoacrylate oligomer is formed, can be from about 2 centipoise to about 5 centipoise as measured by a rheometer. Typically, the oligomer will have a viscosity of from about 10 centipoise to about 50 centipoise.
The purified n-hexyl cyanoacrylate monomer from Example 1, containing 4-methoxyphenol, was treated with Aldrich HQ & MEHQ inhibitor remover, Sigma-Aldrich, Inc., St. Louis, Mo., USA (2005-2006 Catalog #306320), to remove the p-methoxyphenol, followed by bubbling argon through the n-hexyl cyanoacrylate monomer to remove SO2. The viscosity of the purified n-hexyl cyanoacrylate, free of 4-methoxyphenol and SO2, was ˜4 centipoise. […]

viscosity: ~4 centipoise
Substance: n-hexyl cyanoacrylate
